Reference: US20140303242A1, “Sparstolonin B Based Pharmaceutical Agent to Treat Pathological Angiogensis” (University of South Carolina, priority 2013, published 2014)
“Also recorded” adds a separate entry of the source.

Columns and labels:
HMVECs = assay: Matrigel tube formation assay (cardiac HMVECs); assay type: cell-based, human; conditions: 1, 10, 100 μM, 4 h
Procedure: To initially determine if SsnB inhibited pro-angiogenic cell functions, a tube formation assay with Matrigel was performed. Growth factor reduced Matrigel (BD Biosciences, Bedford, Mass.) was added to the wells of a 96 well polystyrene culture plate and incubated at 37° C. for 30 minutes. Cells (HUVECs, HCAECs, or HMVECs at passage 2 to 4) were added to each well to reach a final number of 20,000 cells per well. SsnB was added to the wells at a concentration of 1, 10, or 100 μM. Endothelial cell medium with DMSO (0.1%) was used as a vehicle control. Each group contained 4 replicates. The plates were placed in an incubator for 4 h. During the incubation, the endothelial cells formed elongated structures called cords, also known as tubes. After 4 h, neutral buffered formalin was added to fix the cells. Pictures of three non-overlapping fields were taken from each well. The lengths of single cell endothelial cords were measured with Image-Pro Plus (Media Cybernetics, Silver Spring, Md.), and the sum of tube lengths for each well was determined. The average total length and standard deviation for each group were determined, and the appropriate statistical tests (ANOVA and Newman-Keuls) were completed. The tube formation assay was replicated three times for both HUVECs and HCAECs. The assay was also repeated with cardiac HMVECs.

[1] = tested on: human aortic smooth muscle cells; assay: Cytotoxicity on human aortic smooth muscle cells; assay type: cell-based; conditions: concentrations up to 100 μM
[2] = tested on: chick chorioallantoic membrane (CAM); assay: Chick chorioallantoic membrane (CAM) assay; assay type: in vivo; conditions: methylcellulose disc, 100 micromolar SsnB
Procedure: To investigate the effects of SsnB on in vivo angiogenesis, a chick chorioallantoic membrane (CAM) assay was utilized. Chick embryos were exposed to methylcelluose discs containing vehicle control (DMSO) or 100 micromolar SsnB.
Methylcellulose discs were created with a solution of 0.5% methylcellulose (diluted in sterile deionized water). A methylcellulose solution of 100 micromolar SsnB was made by adding 1.1 microliters of stock SsnB (93 mM) to 1 ml 0.5% methylcellulose. A vehicle control solution was created by adding 1 microliter of dimethyl sulfoxide (DMSO) to 1 ml 0.5% methylcellulose. Discs were created by placing 20 microliter droplets of SsnB or vehicle control solution onto polytetrafluoroethylene tape (to minimize sticking during drying) and allowed to dry under a laminar flow hood.
The fertilized eggs were placed in a humidified egg incubator with forced air circulation at 37° C. The eggs were automatically rotated every three hours. After 4 days of incubation, the eggs were removed and cracked. Chick embryos with intact yolks were placed in 100 mm petri plates. Each petri plate was placed in a weigh boat containing 13 ml Moscona's buffer and covered with cellophane wrap with two holes for air circulation. The plates were placed in a water-jacketed incubator (37 C, 5% CO2) for 2 days. After 2 days of incubation, the methylcellulose discs containing either SsnB or vehicle control were placed on top of the CAM of each embryo in the right upper quadrant in an area near the allantoic vessels. After 2 additional days of incubation, the CAMs were examined and photographed with a dissecting stereomicroscope. Images were taken of areas containing the discs and non-treated regions. Each group contained seven embryos (calculated with PS 3.0.5 software, effect size of 50%, standard deviation of 30%, statistical power of 0.8, and α=0.05). The CAM assay was completed two times.
Images were analyzed with ImagePro Plus software. Blood vessel length and branching number were utilized to measure the effect of SsnB on angiogenesis. The vessel length was measured for areas containing the discs and non-treated regions. Normalized vessel length was calculated by dividing the length values of the treated regions by those of the non-treated regions. The same process was repeated for measuring the branching number.

HUVECs = assay: Transwell insert cell migration assay (VEGF-induced); assay type: cell-based, human; conditions: 8 h
Procedure: The cell invasion assay was performed with a Transwell insert system (6.5 mm diameter inserts with 8.0 μm pores in a polycarbonate membrane situated in wells of 24 well polystrene, tissue culture treated plates, Corning Incorporated, Corning, N.Y.). The Transwell inserts were coated with 0.1% gelatin for 30 min and incubated in low serum medium for 1 h. Cultured HUVECs were trypsinized and then resuspended in low serum medium (0.5% fetal bovine serum without endothelial cell mitogen), and added at 50,000 cells per insert. The cells were allowed to adhere to the inserts for 30 min. Next, various concentrations of SsnB (0.0001, 0.001, 0.01, 0.1, 1, 10, and 100 μM) or vehicle control (0.1% DMSO) were added to the Transwell inserts. After 30 min, the medium in the lower chamber for the experimental groups was replaced with low serum medium containing 10 ng/ml VEGF and thus establishing a chemoattractant gradient between the top insert and lower chamber. For the negative control group, the medium was replaced with low serum medium (0.5% fetal bovine serum). The plates were incubated for 8 h at 37° C. During the incubation, the cells migrated through the pores of the Transwell insert towards the lower chamber. […] Cells were counted from four random fields observed with a 10× objective lens. […]

## O=c1occ2c3c(ccc(O)c13)Oc1ccc(O)cc1-2 [SsnB, Sparstolonin B]
HMVECs
  cardiac HMVEC tube formation: dose-dependent inhibition
[1]
  cytotoxic effects: does not exhibit cytotoxic effects
[2]; 2 days
  blood vessel diameter and size: decrease
[2]; 2 days, vs vehicle control
  normalized branch number: significant decrease; also recorded: significant reduction
[2]; 2 days, vs vehicle control, p<0.05
  normalized blood vessel length (capillary length): significant decrease; also recorded: significant reduction
[2]; relative to vehicle control
  viability or morphology of the embryos: no effect
HUVECs; between 0.1 and 100 μM
  VEGF-induced cell migration inhibition, high concentrations: leveled off
HUVECs; concentrations between 0.0001 and 0.1 μM, p<0.05
  VEGF-induced cell migration: dose-dependent inhibition
